Reference: patent US20040029208A1, “Assay method and kit for testing biological material for exposure to stress using biomarkers” (priority 2000, published 2004)

Assays:
Anagallis arvensis = test: TLC plant biomarker pattern after herbicide spraying (greenhouse); type: in vivo
Method: The experiments were performed in the green-house at the National Environmental Research Institute, Silkeborg, Denmark. All the seeds needed light to germinate, and were sown at the soil surface in individual 11 cm pots. The soil used during the experiments contained: (SM Growing Mould (Growing medium by special soil (sphagnum) added clay granulate), 0-30 mm; grade of turnover 55-75; added per m^3: 3 kg lime (white chalk), 1.5 kg dolit chalk, 40 kg clay granulate; Fertilizer added granulate: NO3-N: 55.0 g; NH4-N: 65.0 g; P: 106.6 g; K: 224.0 g; Mg: 22 g; Micro nutrients added in chelate form, Mo in uorganic form: B-Boron: 1 g; Cu-copper: 6 g; Mn-Manganese: 3 g; Zinc-Zn: 3 g: Fe-iron: 6 g; Mo- molybdenum: 1.4 g).
During the experiments plants were watered from below, and the temperature in the green-house was maintained between 15° C. and 25° C. with variations due to external weather, and the photoperiod was 16th daylight. The green-house is divided into different units, which allowed for the separate maintenance of the control plants from the sprayed plants to avoid undesirable effects due to vapour drift.
Glyphosate (Roundup Bio (360 g L^−1) was supplied by Monsanto Denmark A/S. Recommended field dose=1,44 kg a.i. ha^−1. In all the experiments, an automatic sprayer (designed in Denmark by Jens Kristensen 1994) was used where the herbicide application is achieved by moving boom equipment with two ordinary hydraulic flat fan nozzles (Hardi 4110-16). Two pots per spray event were placed in the middle of the spray chamber at 50 cm distance from the nozzle, delivering 200 L of water per-hectare with a desired herbicide concentration (working pressure 2 bars; speed of spray boom=4.7 km h^−1). The spraying was performed starting with the lowest concentration first, progressing towards the highest concentration. Between each herbicide, the sprayer was thoroughly rinsed several times with water. The control plants were sprayed with water.
The fresh plant material was pressed using a hand press. The extract was immediately centrifuged. (3000 rpm) for 10 minutes. The supernatant was used for analysis. The extracts were kept cool or right above 0° C. during the test to avoid decomposition of biomarkers.
Freeze-dried plant material was crushed and 250 mg was extracted with 5.00 ml 75% ethanol in an ultrasonic bath for 2 hours. The temperature was kept <0° C. (using ice) during the extraction to avoid decomposition of biomarkers. The extract was centrifuged (3000 rpm) for 10 minutes. The supematant was used for analysis and were kept cool during the test to avoid decomposition of biomarkers.
The two extracts (freshtfresh ethanol) were applicated immediately on a TLC plate (10 μl on both TLC-Plate types (see below) using cool air-drying. The 75% ethanolic extract was applicated 10 μl on Silica-gel TLC-plates and 5 μl on Cellulose TLC-plates (see below). The fresh/fresh ethanolic extractsare recommended to perform if fresh plant material are to be analysed (field-test). The freeze-dried or frozen plant material extraction Is recommended if the analysis are performed in the laboratory.
[…] Derivatisation: Stock solution 1:50% sulfuric acid in 96% ethanol; Stock solution 2: 2% vanillin in absolut alcohol; Derivatisation-solvent, Fresh produced before us, stock solution 1 and stock solution 2 (1:10); Aftercare: 120° C. in 2-3 min. The plate is valuated visually. The system detects higher alcoholics, phenolic compounds, steroids and etheric oils (Stahl 1969), terpenoids, phenyl propanolds, phenolic compounds (Wagner etea. 1984)
TLC-System 7: HPTLC-Alufolie Silica Gel 60 F2u, Merck 1.05548 (10×10 cm); 10 μl plant extracts plants exposed to glyphosate and control plants; eluted in n-butanol: acetic acid: water (4:1:5) (upper phase after 5 minutes shaking). Derivatisation: 0,5 g p-anisaldehyde diluted in 10 ml conc. acetic acid and 85 ml absolute alcohol is and 5 ml conc. sulfuric acid (added in the following row). The plate is heated to. […]

Plantágo lanceoláta = test: Visual effect rating (0-9) after herbicide spraying; type: in vivo
Description: Four, eight, sixteen and thirty two days after spraying, visual effects on plants were noted before harvest, using the rating chart described in Hamil. et al. (1977) and Boutin et al. (1993); a rating of zero indicates full growth and vigour, and a rating of nine indicates no growth/mortality.
The min. visual effect (VE) of the presence of plant biomarkers is rated as described by Hamil et al., (1977) and Boutin et al. (1993).

O=C(O)CNCP(=O)(O)O [Glyphosate]
LC: lowest dose of concentration of the herbicide with phytochemical changes in all the TLC-Systems (Anagallis arvensis; Roundup Bio, Anagallis arvensis): 1% of field dose
Min. of label dose of herbicide with effect (Anagallis arvensis; TLC 1 (non-specific compounds)): 1%
Min. of label dose of herbicide with effect (Anagallis arvensis; TLC 6 (lipids and terpens)): 1%
Min. of label dose of herbicide with effect (Anagallis arvensis; TLC 4d (amino acids)): 1%
Min. visual effect (Plantágo lanceoláta; at presence of TLC 1 biomarker): 0
Min. visual effect (Plantágo lanceoláta; at presence of TLC 6 biomarker): 4
